Residues, ends and D or L forms follow the SMILES beside them.
Molecular target: T1, PD-1/PD-L1 (Homo sapiens (Human), UniProt Q9NZQ7)
Assay: PD-1/PD-L1 binding assay (HTRF)
In short: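 HTRF read-out (665/620 nm) after 60 min at 25 °C with 1 nM Eu anti-human IgG and 20 nM APC anti-His. Beforehand, inhibitors were preincubated 40 min with Fc-PD-1 (25-167, […] as listed) and His-PD-L1 (19-238, 10 nM) in PBS pH 7.4 with Tween-20, BSA, 1% DMSO; IC50 from log-concentration curve.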

T1 sequence (Q9NZQ7 19-238): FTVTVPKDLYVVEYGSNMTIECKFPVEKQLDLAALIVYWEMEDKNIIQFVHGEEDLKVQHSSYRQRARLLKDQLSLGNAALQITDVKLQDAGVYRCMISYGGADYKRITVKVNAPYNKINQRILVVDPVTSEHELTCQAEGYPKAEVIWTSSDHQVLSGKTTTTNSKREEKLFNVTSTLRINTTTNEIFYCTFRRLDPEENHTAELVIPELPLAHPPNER

IC50 [nM]	SMILES
≤ 10	Cc1c(NC(=O)c2nc3c(n2C)CCN(C)C3)cccc1-c1cccc(NC(=O)c2nc3c(n2C)CCN(CC[C@H]2CC[C@H](C(=O)O)CC2)C3)c1Cl [Example 115, trans-4-(2-(2-((2-chloro-3′-(1,5-dimethyl-4,5,6,7-tetrahydro-1H-imidazo[4,5-c]pyridine-2-carboxamido)-2′-methyl-[1,1′-biphenyl]-3-yl)carbamoyl)-1-methyl-1,4,6,7-tetrahydro-5H-imidazo[4,5-c]pyridin-5-yl)ethyl)cyclohexane-1-carboxylic acid]
≤ 10	Cn1c(C(=O)Nc2cccc(-c3cccc(NC(=O)c4nc5c(n4C)CCN(CC[C@H]4CC[C@H](C(=O)O)CC4)C5)c3Cl)c2Cl)nc2c1CCN(CCO)C2 [Example 93, trans-4-(2-(2-((2,2′-dichloro-3′-(5-(2-hydroxyethyl)-1-methyl-4,5,6,7-tetrahydro-1H-imidazo[4,5-c]pyridine-2-carboxamido)-[1,1′-biphenyl]-3-yl)carbamoyl)-1-methyl-1,4,6,7-tetrahydro-5H-imidazo[4,5-c]pyridin-5-yl)ethyl)cyclohexane-1-carboxylic acid]
≤ 10	Cc1c(NC(=O)c2nc3c(n2C)CCN(C2C4CC5CC2CC(C(=O)O)(C5)C4)C3)cccc1-c1cccc(NC(=O)c2nc3c(n2C)CCN(C)C3)c1Cl (stereo not drawn) [175 (compound 175-1), 4-(2-((2′-chloro-3′-(1,5-dimethyl-4,5,6,7-tetrahydro-1H-imidazo[4,5-c]pyridine-2-carboxamido)-2-methyl-[1,1′-biphenyl]-3-yl)carbamoyl)-1-methyl-1,4,6,7-tetrahydro-5H-imidazo[4,5-c]pyridin-5-yl)adamantane-1-carboxylic acid]
≤ 10	Cc1c(NC(=O)c2nc3c(n2C)CCN(C[C@H](C)O)C3)cccc1-c1cccc(NC(=O)c2nc3c(n2C)CCNC3)c1Cl [Example 41, (S)—N-(2′-chloro-2-methyl-3′-(1-methyl-4,5,6,7-tetrahydro-1H-imidazo[4,5-c]pyridine-2-carboxamido)-[1,1′-biphenyl]-3-yl)-5-(2-hydroxypropyl)-1-methyl-4,5,6,7-tetrahydro-1H-imidazo[4,5-c]pyridine-2-carboxamide]
≤ 10	C[C@H](O)CN1CCc2c(nc(C(=O)Nc3cccc(-c4cccc(NC(=O)c5nc6c(n5C)CCN(C)C6)c4Cl)c3Cl)n2C)C1 [Example 27, (S)—N-(2,2′-dichloro-3′-(1,5-dimethyl-4,5,6,7-tetrahydro-1H-imidazo[4,5-c]pyridine-2-carboxamido)biphenyl-3-yl)-5-(2-hydroxypropyl)-1-methyl-4,5,6,7-tetrahydro-1H-imidazo[4,5-c]pyridine-2-carboxamide]
≤ 10	Cn1c(C(=O)Nc2cccc(-c3cccc(-c4nc5c(o4)CN(C(=O)CN4CC[C@@H](O)C4)C5)c3Cl)c2Cl)nc2c1CCN(CCC1CCC(C(=O)O)CC1)C2 (stereo partly drawn) [Compound 171, (R)-4-(2-(2-(2,2′-dichloro-3′-(5-(2-(3-hydroxypyrrolidin-1-yl)acetyl)-5,6-dihydro-4H-pyrrolo[3,4-d]oxazol-2-yl)biphenyl-3-ylcarbamoyl)-1-methyl-6,7-dihydro-1H-imidazo[4,5-c]pyridin-5(4H)-yl)ethyl)cyclohexane-1-carboxylic acid]
≤ 10	CCN(C)CC(=O)N1Cc2nc(-c3cccc(-c4cccc(NC(=O)c5nc6c(n5C)CCN(CCC5CCC(C(=O)O)CC5)C6)c4Cl)c3Cl)oc2C1 (stereo not drawn) [Compound 169, 4-(2-(2-((2,2′-dichloro-3′-(5-(N-ethyl-N-methylglycyl)-5,6-dihydro-4H-pyrrolo[3,4-d]oxazol-2-yl)-[1,1′-biphenyl]-3-yl)carbamoyl)-1-methyl-1,4,6,7-tetrahydro-5H-imidazo[4,5-c]pyridin-5-yl)ethyl)cyclohexane-1-carboxylic acid]
≤ 10	CC(C)N1CCc2c(nc(C(=O)Nc3cccc(-c4cccc(NC(=O)c5nc6c(n5C)CCN(C[C@H]5CC[C@@H](C(=O)O)CC5)C6)c4Cl)c3Cl)n2C)C1 [Example 72, cis-4-((2-((2,2′-dichloro-3′-(5-isopropyl-1-methyl-4,5,6,7-tetrahydro-1H-imidazo[4,5-c]pyridine-2-carboxamido)-[1,1′-biphenyl]-3-yl)carbamoyl)-1-methyl-1,4,6,7-tetrahydro-5H-imidazo[4,5-c]pyridin-5-yl)methyl)cyclohexane-1-carboxylic acid]

Molecular target: T1, PD-1/PD-L1
Assay: PD-1/PD-L1 binding assay (Alphascreen)
Experimental: Binding assays were conducted in a low volume white 384-well polystyrene plate in a final volume of 20 μL. Compounds to be analyzed were first serially diluted in DMSO and added to the plate wells before the addition of other reaction components. The final concentration of DMSO in the assay was 1%. The assay was carried out at 25° C. in the PBS buffer (pH 7.4) with 0.05% Tween-20 and 0.1% BSA. Recombinant human PD-L1 protein (19-238) with a His-tag at the C-terminus was purchased from AcroBiosystems (PD1-H5229). Recombinant human PD-1 protein (25-167) with Fc tag at the C-terminus was also from AcroBiosystems (PD1-H5257). PD-L1 and PD-1 proteins were diluted in the assay buffer (final concentration −0.67 and 0.20 nM respectively) and 10 μL was added to the plate well. Plates were centrifuged and proteins were preincubated with compounds for 40 minutes. The incubation was followed by the addition of 10 μL of assay buffer supplemented with Alphascreen Ni chelate donor beads (PerkinElmer-AS101D) and Protein A Acceptor beads (PerkinElmer-6760137) at final concentration 2.5 μg/mL under reduced light. After plate sealing, the plate was incubated in the dark at room temperature for 120 minutes before reading on a PHERAstar FS plate reader (BMG Labtech). […]

IC50 [nM]	SMILES
> 1	CCCC[C@H]1C(=O)N(C)CC(=O)N[C@@H](CC(=O)O)C(=O)N[C@@H](C(C)C)C(=O)N(C)[C@@H](Cc2ccccc2)C(=O)N[C@@H](Cc2ccc(O)cc2)C(=O)N(C)CC(=O)N[C@@H](Cc2c[nH]c3ccccc23)C(=O)N[C@@H](Cc2ccc(O)cc2)C(=O)N[C@@H](CC(C)C)C(=O)N[C@H](C(=O)NCC(N)=O)CSCC(=O)N[C@@H](Cc2ccccc2)C(=O)N(C)[C@@H](Cc2ccccc2)C(=O)N1C [Cpd 27] (HELM PEPTIDE1{[O=C(C[*:3])[*:2]].F.[meF].[CCCC[C@@H](C(=O)[*:2])N(C)[*:1]].[Sar].D.V.[meF].Y.[Sar].W.Y.L.C.G.[am]}$PEPTIDE1,PEPTIDE1,1:R3-14:R3$$$V2.0)

Reference: patent US10806785B2, “Immunomodulator compounds and methods of use” (Incyte Corporation, priority 2016, dated 2020)
